Results taken from patent US10683265B1, “Cannabidiol-3-sulfonic acid, preparation method and application thereof, and cannabidiol derivative” (Yantai Hemp Biotechnology Co., Ltd., priority 2019, dated 2020).
≈ marks a conversion by molar mass, not a printed value. Where two headings read alike, the source gives them in different places.

Experiments:
[1] = Solubility determining in water by HPLC (saturated solutions, external standard method); type: physicochemical; details: for solubility: thermodynamic from solid
Excerpt: 1. Solubility Determining:
1) Instruments and reagents: Thermo Fisher UltiMate 3000 high performance liquid chromatography (Thermo, USA); chromatographic column (Phenomenex Gemini C18, 5μ, 250×4.6 mm); electronic balance (METTLER TOLEDO instruments (Shanghai) Co., Ltd.); cannabidiol (commercially available), cannabidiol-3-sulfonic acid (prepared in Embodiment 1) and sodium cannabidiol-3-sulfonate (prepared in Embodiment 3). chromatography acetonitrile (Merck, Germany); water was Milli-Q ultrapure water, the remaining reagents were analytically pure.
Three clean 10 mL penicillin bottles were taken, 6 mL of ultrapure water was added accurately in each of the penicillin bottles, and the weight was weighed accurately. Cannabidiol, cannabidiol-3-sulfonic acid and sodium cannabidiol-3-sulfonate were separately added at room temperature until ultrasonic treatment was performed for 10 min and the samples still could not be completely dissolved, to obtain saturated solutions of three compounds respectively; the solutions stood overnight at room temperature, and supernatants were taken as solutions of samples for test (supernatants of the cannabidiol-3-sulfonic acid and the sodium cannabidiol-3-sulfonate were diluted by appropriate times depending on the detection situation).
An appropriate amount of cannabidiol, cannabidiol-3-sulfonic acid and sodium cannabidiol-3-sulfonate were taken and were prepared into solutions with a concentration of 0.2 mg·mL^−1 as reference substance solutions by using 10% acetonitrile-0.5% acetic acid solution.
The samples were determined by high performance liquid chromatography (Appendix V D of Part II of Chinese Pharmacopoeia).
Chromatographic conditions and system suitability Octadecylsilane bonded silica was used as a filler; 10% acetonitrile—0.5% acetic acid→75% acetonitrile—0.5% acetic acid were used as mobile phases; the wavelength was detected to be 225 nm; and the theoretical plate numbers were not less than 4,000 on a basis of cannabidiol, cannabidiol-3-sulfonic acid and sodium cannabidiol-3-sulfonate.
A measurement method includes: precisely measuring and injecting 20 μL of solution of sample for test into a liquid chromatograph, and recording a chromatogram; and taking a reference substance solution and measuring the reference substance solution according to the same method. The concentrations of the three compounds in the solution of sample for test were calculated by an external standard method according to a peak area.

[2] = high-purity CBD, cited from earlier work
[3] = in water, room temperature, saturated solution stood overnight, supernatant measured by HPLC, read-out: Solubility

Compound | Solubility in water (in words) ([1]; in water at room temperature) | solubility [1, 3] | Solubility in organic solvents (in words) ([2]; ethanol, methanol, ether, benzene, chloroform, petroleum ether and other organic solvents) | Solubility in water or 10% sodium hydroxide solution (in words) ([2]; water or 10% sodium hydroxide solution) | solubility ([1]; water)
C=C(C)[C@@H]1CCC(C)=C[C@H]1c1c(O)cc(CCCCC)cc1O [Cannabidiol, 2-[(1R,6R)-3-methyl-6-(1-methylvinyl)-2-cyclohexen-1-yl]-5-pentyl-1,3-benzenediol] | slightly soluble | 0.41 mg/mL (≈ 1.3 mM) | soluble | almost insoluble | –
C=C(C)[C@@H]1CCC(C)=C[C@H]1c1c(O)cc(CCCCC)c(S(=O)(=O)[O-])c1O.[Na+] [Sodium cannabidiol-3-sulfonate, sodium cannabidiol-3-sulfonate] | – | 486 mg/mL | – | – | –
C=C(C)[C@@H]1CCC(C)=C[C@H]1c1c(O)cc(CCCCC)c(S(=O)(=O)O)c1O [Cannabidiol-3-sulfonic acid, (1′R,2′R)-2,6-dihydroxy-5′-methyl-4-pentyl-2″-(propyl-1-en-2-yl)-1″,2′,3′,4′-tetrahydro-[1,1′-biphenyl]-3-sulfonic acid] | – | – | – | – | 56.2 mg/mL (≈ 142 mM)
